In assay [1] the test system is ECa-109 cell line. The assay is described as follows: Antiproliferative activity against human EC109 cells assessed as inhibition of cell growth incubated for 72 hrs by SRB assay. It is filed as functional, cell-based. The note with it: ECa-109, 72 h.
The subject of assay [2] is MCF7. Nature of the assay: Antiproliferative activity against human MCF7 cells assessed as inhibition of cell growth incubated for 72 hrs by SRB assay. The format is functional, cell-based. Conditions: MCF7, 72 h. (In general: The SRB assay estimates cell density from bound dye.)
The subject of assay [3] is MGC-803. Nature of the assay: Antiproliferative activity against human MGC-803 cells assessed as inhibition of cell growth incubated for 72 hrs by SRB assay. Conditions: MGC-803, 72 h. It is filed as functional, cell-based.
For assay [4], the system named is TE-1. The assay is described as follows: Antiproliferative activity against human TE-1 cells assessed as inhibition of cell growth incubated for 72 hrs by SRB assay. It is filed as functional, cell-based. Conditions: TE-1, 72 h.
Assay [5] relates to ECa-109 cell line. The assay is described as follows: Induction of apoptosis in human EC-109 cells assessed as apoptotic rate at 5 mM after 24 hrs by Annexin V-FITC/propidium iodide staining based flow cytometry (reference value: 5.7 %). The format is functional. (Flow cytometry measures light scatter and fluorescence of single cells or particles in a stream.)
Assay [6] concerns ECa-109 cell line. The assay is described as follows: Induction of apoptosis in human EC-109 cells assessed as apoptotic rate at 5 mM after 48 hrs by Annexin V-FITC/propidium iodide staining based flow cytometry (reference value: 3.8 %). The format is functional.
Assay [7] deals with ECa-109 cell line. Nature of the assay: Induction of apoptosis in human EC109 cells assessed as increase in intracellular ROS level at 5 mM incubated for 24 hrs by DCFH-DA staining based flow cytometry analysis (reference value: 0.6 %). It is filed as functional.
Assay [8] concerns ECa-109 cell line. The assay is described as follows: Induction of mitochondrial depolarization in human EC-109 cells assessed as depolarized cell population at 5 mM measured after 24 hrs by JC1 dye based flow cytometry (reference value: 4.2 %). The format is functional.

IC50 and Activity data for 28 molecules are collected here from ChEMBL document CHEMBL4706557, “Synthesis and in vitro and in vivo biological evaluation of novel derivatives of flexicaulin A as antiproliferative agents” (Eur J Med Chem, 2020).

Consider `C=C1C(=O)[C@@]23[C@H](O)C[C@@H]4C(C)(C)CCC[C@@]4(COC(C)=O)[C@@H]2[C@@H](O)C[C@H]1[C@H]3OC(=O)c1cccc(F)c1`, for which the IC50 (usually the concentration at which inhibition is half-maximal) in assay [1] turned out to be 1630 nM; in assay [2], 2230 nM; in assay [3] it was 2350 nM; in assay [4], 1300 nM.
As to `C=C1C(=O)[C@@]23[C@H](O)C[C@@H]4C(C)(C)CCC[C@@]4(COC(C)=O)[C@@H]2[C@@H](O)C[C@H]1[C@H]3OC(=O)c1ccc(Cl)cc1Cl`, the 50% inhibitory concentration (IC50) in assay [1] came to 4250 nM; in assay [2] it was 1170 nM; in assay [3], 1150 nM; in assay [4], 1240 nM.
For `C=C1C(=O)[C@@]23[C@H](O)C[C@@H]4C(C)(C)CCC[C@@]4(COC(C)=O)[C@@H]2[C@@H](O)C[C@H]1[C@H]3OC(=O)c1ccccc1F` the same measures were 1630 nM, 1720 nM, 2290 nM and 3630 nM.
The like results for `C=C1C(=O)[C@@]23[C@H](O)C[C@@H]4C(C)(C)CCC[C@@]4(COC(C)=O)[C@@H]2[C@@H](O)C[C@H]1[C@H]3OC(=O)c1cccc(Br)c1` were, in that order, 240 nM, 380 nM, 420 nM and 160 nM.
For `C=C1C(=O)[C@@]23[C@H](O)C[C@@H]4C(C)(C)CCC[C@@]4(COC(C)=O)[C@@H]2[C@@H](O)C[C@H]1[C@H]3OC(=O)c1ccc(Cl)cc1` the same measures were 330 nM, 270 nM, 280 nM and 380 nM.
On to `C=C1C(=O)[C@@]23[C@H](O)C[C@@H]4C(C)(C)CCC[C@@]4(COC(C)=O)[C@@H]2[C@@H](O)C[C@H]1[C@H]3OC(=O)c1cc(Cl)ccc1OC`, for which the half-maximal inhibitory concentration (IC50) in assay [1] is 560 nM; in assay [2], 480 nM; in assay [3], 660 nM; in assay [4], 460 nM.
For `C=C1C(=O)[C@@]23[C@H](O)C[C@@H]4C(C)(C)CCC[C@@]4(COC(C)=O)[C@@H]2[C@@H](O)C[C@H]1[C@H]3OC(=O)c1ccccc1C(F)(F)F` the same measures were 420 nM, 400 nM, 790 nM and 320 nM.
For the molecule `C=C1C(=O)[C@@]23[C@H](O)C[C@@H]4C(C)(C)CCC[C@@]4(COC(C)=O)[C@@H]2[C@@H](O)C[C@H]1[C@H]3OC(=O)c1ccc(C(F)(F)F)cc1`, the half-inhibitory concentration (IC50) in assay [1] is 380 nM; in assay [2], 350 nM; in assay [3], 770 nM; in assay [4], 420 nM.
The like results for `C=C1C(=O)[C@@]23[C@H](O)C[C@@H]4C(C)(C)CCC[C@@]4(COC(C)=O)[C@@H]2[C@@H](O)C[C@H]1[C@H]3OC(=O)c1ccccc1C` were, in that order, 470 nM, 390 nM, 630 nM and 450 nM.
For `C=C1C(=O)[C@@]23[C@H](O)C[C@@H]4C(C)(C)CCC[C@@]4(COC(C)=O)[C@@H]2[C@@H](O)C[C@H]1[C@H]3OC(=O)c1ccccc1` the same measures were 310 nM, 200 nM, 470 nM and 330 nM.
For `C=C1C(=O)[C@@]23[C@H](O)C[C@@H]4C(C)(C)CCC[C@@]4(COC(C)=O)[C@@H]2[C@@H](O)C[C@H]1[C@H]3OC(=O)c1ccccc1Cl` the same measures were 410 nM, 410 nM, 710 nM and 450 nM.
With `C=C1C(=O)[C@@]23[C@H](O)C[C@@H]4C(C)(C)CCC[C@@]4(COC(C)=O)[C@@H]2[C@@H](O)C[C@H]1[C@H]3OC(=O)c1ccc(CBr)cc1`, the half-maximal inhibitory concentration (IC50) in assay [1] amounted to 170 nM; in assay [2], 140 nM; in assay [3] it was 340 nM; in assay [4], 250 nM.
With `CC(=O)N[C@@H](CS)C(=O)O` [ACETYLCYSTEINE], the Activity in assay [5] is on record as 6.4%; in assay [6], 4.5%; in assay [7], 0.2%; in assay [8] it was 4.8%.
As for `C=C1C(=O)[C@@]23[C@H](O)C[C@@H]4C(C)(C)CCC[C@@]4(COC(C)=O)[C@@H]2[C@@H](O)C[C@H]1[C@H]3OC(=O)c1cccc(Cl)c1`, the IC50 in assay [1] amounted to 400 nM; in assay [2], 360 nM; in assay [3], 410 nM; in assay [4] it was 410 nM.
Regarding `C=C1C(=O)[C@@]23[C@H](O)C[C@@H]4C(C)(C)CCC[C@@]4(COC(C)=O)[C@@H]2[C@@H](O)C[C@H]1[C@H]3OC(=O)c1ccc(OC)cc1`, the IC50 was 290 nM in assay [1], 230 nM in assay [2], 460 nM in assay [3] and 250 nM in assay [4].
The like results for `C=C1C(=O)[C@@]23[C@H](O)C[C@@H]4C(C)(C)CCC[C@@]4(COC(C)=O)[C@@H]2[C@@H](O)C[C@H]1[C@H]3OC(=O)c1ccc(OC)c(OC)c1` were, in that order, 270 nM, 140 nM, 570 nM and 340 nM.
With `C=C1C(=O)[C@@]23[C@H](O)C[C@@H]4C(C)(C)CCC[C@@]4(COC(C)=O)[C@@H]2[C@@H](O)C[C@H]1[C@H]3OC(=O)c1ccc(F)cc1`, the half-inhibitory concentration (IC50) is 8480 nM in assay [1], 1340 nM in assay [2], 920 nM in assay [3] and 20100 nM in assay [4].
The like results for `C=C1C(=O)[C@@]23[C@H](O)C[C@@H]4C(C)(C)CCC[C@@]4(COC(C)=O)[C@@H]2[C@@H](O)C[C@H]1[C@H]3O` were, in that order, 5240 nM, 6790 nM, 8700 nM and 6820 nM.
For `C=C1C(=O)[C@@]23[C@H](O)C[C@@H]4C(C)(C)CCC[C@@]4(COC(C)=O)[C@@H]2[C@@H](O)C[C@H]1[C@H]3OC(=O)c1ccc(C)cc1` the same measures were 300 nM, 240 nM, 480 nM and 300 nM.
In the case of `C=C1C(=O)[C@@]23[C@H](O)C[C@@H]4C(C)(C)CCC[C@@]4(COC(C)=O)[C@@H]2[C@@H](O)C[C@H]1[C@H]3OC(=O)CCc1ccccc1`, the concentration for half-maximal inhibition (IC50) in assay [1] was 680 nM; in assay [2], 600 nM; in assay [3], 1280 nM; in assay [4], 720 nM.
The like results for `C=C1C(=O)[C@@]23[C@H](O)C[C@@H]4C(C)(C)CCC[C@@]4(COC(C)=O)[C@@H]2[C@@H](O)C[C@H]1[C@H]3OC(=O)CCCBr` were, in that order, 760 nM, 470 nM, 250 nM and 470 nM.
The like results for `C=C1C(=O)[C@@]23[C@H](O)C[C@@H]4C(C)(C)CCC[C@@]4(COC(C)=O)[C@@H]2[C@@H](O)C[C@H]1[C@H]3OC(=O)c1ccccc1Br` were, in that order, 510 nM, 460 nM, 520 nM and 370 nM.
For `C=C1C(=O)[C@@]23[C@H](O)C[C@@H]4C(C)(C)CCC[C@@]4(COC(C)=O)[C@@H]2[C@@H](O)C[C@H]1[C@H]3OC(=O)c1cccc(Cl)c1Cl` the same measures were 330 nM, 310 nM, 690 nM and 390 nM.
As for `C=C1C(=O)[C@]23[C@H](O)[C@H]1CC[C@H]2[C@@]12CO[C@]3(O)[C@@H](O)[C@@H]1C(C)(C)CC[C@@H]2O` [ORIDONIN], the IC50 in assay [1] came to 22000 nM.
With `C=C1C(=O)[C@@]23[C@H](O)C[C@@H]4C(C)(C)CCC[C@@]4(COC(C)=O)[C@@H]2[C@@H](O)C[C@H]1[C@H]3OC(=O)c1ccc(Br)cc1`, the 50% inhibitory concentration (IC50) was 380 nM in assay [1], 330 nM in assay [2], 610 nM in assay [3] and 390 nM in assay [4].
The like results for `C=C1C(=O)[C@@]23[C@H](O)C[C@@H]4C(C)(C)CCC[C@@]4(COC(C)=O)[C@@H]2[C@@H](O)C[C@H]1[C@H]3OC(=O)c1cccc(C(F)(F)F)c1` were, in that order, 330 nM, 290 nM, 1150 nM and 370 nM.
For `C=C1C(=O)[C@@]23[C@H](O)C[C@@H]4C(C)(C)CCC[C@@]4(COC(C)=O)[C@@H]2[C@@H](O)C[C@H]1[C@H]3OC(=O)c1cccc(C)c1`, the half-maximal inhibitory concentration (IC50) in assay [1] was 370 nM; in assay [2], 290 nM; in assay [3] it was 310 nM; in assay [4], 320 nM.
The like results for `C=C1C(=O)[C@@]23[C@H](O)C[C@@H]4C(C)(C)CCC[C@@]4(COC(C)=O)[C@@H]2[C@@H](O)C[C@H]1[C@H]3OC(=O)c1cccc(OC)c1` were, in that order, 440 nM, 250 nM, 460 nM and 420 nM.
